The text below walks through data of ChEMBL document CHEMBL1201862, “PubChem BioAssay data set” (2004).

Active and inactive are the calls of the source. Bounds are passed on as bounds.

Broadly, the EC50 is the concentration that produces a half-maximal response. By AC50 is commonly meant the concentration giving half of the maximal activity seen. As a reminder, the CC50 is the concentration at which the toxic effect on the cells reaches its halfway point.

In assay [1] the target is T1, Serine/threonine-protein phosphatase (Candida dubliniensis (strain CD36 / CBS 7987 / NCPF 3949 / NRRLY-17841) (Yeast), UniProt B9W6M3).
T1 sequence (B9W6M3 whole entry): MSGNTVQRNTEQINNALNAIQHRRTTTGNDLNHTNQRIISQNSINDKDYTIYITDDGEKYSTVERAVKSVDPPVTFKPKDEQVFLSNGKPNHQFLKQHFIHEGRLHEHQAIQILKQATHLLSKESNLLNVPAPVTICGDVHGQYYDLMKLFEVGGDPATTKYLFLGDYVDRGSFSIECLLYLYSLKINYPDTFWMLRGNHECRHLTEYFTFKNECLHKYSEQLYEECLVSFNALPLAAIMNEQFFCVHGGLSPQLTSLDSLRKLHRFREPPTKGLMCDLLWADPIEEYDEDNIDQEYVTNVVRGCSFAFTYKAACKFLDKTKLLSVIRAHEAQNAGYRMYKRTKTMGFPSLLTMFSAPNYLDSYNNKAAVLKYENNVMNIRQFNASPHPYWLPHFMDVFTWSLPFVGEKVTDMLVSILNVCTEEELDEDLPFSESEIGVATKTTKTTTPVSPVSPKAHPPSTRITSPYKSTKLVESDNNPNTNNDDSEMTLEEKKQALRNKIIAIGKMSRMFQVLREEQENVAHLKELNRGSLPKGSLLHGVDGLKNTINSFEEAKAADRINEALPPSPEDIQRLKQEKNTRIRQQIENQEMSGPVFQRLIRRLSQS
Description: calcineurin pathway inhibitors in yeast reporter, dose response, S. cerevisiae, CDRE-lacZ, luminescence, secondary (AID 2388).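 Note: yeast reporter cells carrying a calcineurin-responsive lacZ construct stimulated with calcium chloride; luminescent beta-galactosidase reporter signal in whole cells rather than isolated phosphatase activity; potency for inhibition where a drop in reporter signal means calcineurin blockade.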 Type of assay: functional, cell-based.

Assay [2] is described as follows: NIH-3T3 fibroblast cytotoxicity, dose response, cytotoxicity control, cell-based, fluorescence, Alamar Blue, secondary assay (AID 2327).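 Note: NIH-3T3 mouse fibroblasts cultured with fluconazole at 8 µg/mL.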 It counts as functional.
Assay [3] can be described thus: C. albicans growth with fluconazole, confirmation, fluorescence, retest (AID 2467). It counts as functional, cell-based.
The target in assay [4] is ATP-dependent molecular chaperone HSP82 (Candida albicans (strain WO-1) (Yeast), UniProt C4YTQ8). Kind of assay: loss of DOC-induced GRE-beta-galactosidase reporter signal, dose response, Hsp90 inhibitor project, S. cerevisiae, luminescence (AID 2400).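 Note: beta-galactosidase luminescence from glucocorticoid response element reporter as proxy for Hsp90 function; inhibitor potency where signal loss means Hsp90 inhibition.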 Type of assay: functional, cell-based.
ATP-dependent molecular chaperone HSP82, sequence (C4YTQ8 whole entry): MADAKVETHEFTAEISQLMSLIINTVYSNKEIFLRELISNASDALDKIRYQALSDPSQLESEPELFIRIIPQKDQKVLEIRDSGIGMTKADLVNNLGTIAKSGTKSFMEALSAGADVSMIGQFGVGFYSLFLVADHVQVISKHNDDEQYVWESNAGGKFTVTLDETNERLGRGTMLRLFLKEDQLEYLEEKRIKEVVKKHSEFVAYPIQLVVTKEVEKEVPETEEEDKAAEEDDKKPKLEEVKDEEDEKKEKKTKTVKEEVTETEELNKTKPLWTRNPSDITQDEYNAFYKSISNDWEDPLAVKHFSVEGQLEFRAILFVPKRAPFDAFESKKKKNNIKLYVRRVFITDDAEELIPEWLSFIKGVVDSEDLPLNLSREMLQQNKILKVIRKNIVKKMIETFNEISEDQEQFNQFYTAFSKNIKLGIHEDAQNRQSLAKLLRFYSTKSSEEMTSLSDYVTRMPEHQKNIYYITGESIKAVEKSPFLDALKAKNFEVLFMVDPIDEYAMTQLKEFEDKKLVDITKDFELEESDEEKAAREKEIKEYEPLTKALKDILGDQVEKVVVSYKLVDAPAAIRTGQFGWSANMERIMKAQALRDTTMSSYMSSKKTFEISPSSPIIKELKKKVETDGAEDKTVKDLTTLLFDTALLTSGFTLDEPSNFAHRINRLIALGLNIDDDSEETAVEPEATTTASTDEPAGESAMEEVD
The target of assay [5] is Protein Wnt-3a (Mus musculus, UniProt P27467). Kind of assay: Wnt3a-driven reporter signaling inhibition, dose response, selectivity assay for Gli-SUFU antagonist project, Wnt-LIGHT cells, luminescence (AID 651570).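 Note: Wnt-LIGHT reporter cells stimulated with conditioned medium from Wnt3a-producing cells.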 It counts as functional. The conditions noted are these: read-out: IC50_Mean.
Protein Wnt-3a, sequence (P27467 whole entry): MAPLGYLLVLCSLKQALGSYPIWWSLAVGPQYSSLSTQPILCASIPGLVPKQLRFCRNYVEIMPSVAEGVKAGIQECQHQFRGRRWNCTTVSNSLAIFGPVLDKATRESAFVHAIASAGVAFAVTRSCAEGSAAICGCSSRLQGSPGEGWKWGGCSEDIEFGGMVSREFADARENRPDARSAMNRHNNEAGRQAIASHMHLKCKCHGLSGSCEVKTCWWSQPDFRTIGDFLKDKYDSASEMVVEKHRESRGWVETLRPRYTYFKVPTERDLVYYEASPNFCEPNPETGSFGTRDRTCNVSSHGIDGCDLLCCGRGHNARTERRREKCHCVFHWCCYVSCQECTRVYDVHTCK
Assay [6] is described as follows: cytotoxicity toward NIH3T3 fibroblasts, dose response, counter-screen, cell-based, ATP luminescence, mouse fibroblasts (AID 2010).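 Note: cells exposed to compound for about 90 hours before reading.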 Type of assay: functional. In general terms: Counterscreens check selectivity or assay interference.
A short description of assay [7]: inhibitors of intracellular T. cruzi replication, confirmation, NIH3T3 host cells, beta-gal luminescence (AID 2044).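 Note: intracellular parasites grown in NIH/3T3 mouse fibroblasts as host cells; luminescent beta-galactosidase reporter signal from transgenic T. cruzi replicating inside host cells; inhibitors lower the luminescence signal.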 Type of assay: functional, cell-based.
For assay [8], the system named is Streptococcus sp. 'group A'. Kind of assay: growth inhibition of control SK(-) GAS strain, dose response, counter-screen for streptokinase expression inhibitor project, luminescence, kanamycin, BacTiterGlo, confirmation (AID 1900). Type of assay: functional, organism-based.
The test system of assay [9] is INS1. Description: beta cell apoptosis inhibitors, cytokine rescue, dose response, luminescence, retest (AID 449756).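 Note: cell death triggered by IL-1 beta plus TNF-alpha plus IFN-gamma mixture; protective hits raise ATP signal compared with cytokine alone wells.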 Type of assay: functional, cell-based. As to conditions: Rattus norvegicus.
Assay [10] has as its target T2, Streptokinase A (Streptococcus pyogenes serotype M1, UniProt P10520).
T2 sequence (P10520 whole entry): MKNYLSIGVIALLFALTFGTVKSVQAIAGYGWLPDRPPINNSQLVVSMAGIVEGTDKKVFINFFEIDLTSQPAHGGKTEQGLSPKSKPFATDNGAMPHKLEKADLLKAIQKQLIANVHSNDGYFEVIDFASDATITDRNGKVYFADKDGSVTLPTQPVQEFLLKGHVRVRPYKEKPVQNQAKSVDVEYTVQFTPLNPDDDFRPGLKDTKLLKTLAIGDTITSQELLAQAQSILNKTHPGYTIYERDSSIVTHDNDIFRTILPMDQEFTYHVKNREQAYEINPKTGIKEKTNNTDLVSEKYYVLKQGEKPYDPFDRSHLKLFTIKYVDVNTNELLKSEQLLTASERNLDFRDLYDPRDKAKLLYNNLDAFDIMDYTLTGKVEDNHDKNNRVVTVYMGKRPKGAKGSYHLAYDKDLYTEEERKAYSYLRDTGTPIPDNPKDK
Description: S. pyogenes streptokinase expression inhibitors, potency, dose response, plasminogen activation absorbance, OD405 (AID 1914).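 Note: secreted streptokinase activity via plasminogen activation per viability signal from cell pellet.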 Type of assay: functional, Streptococcus pyogenes M1 GAS.

Assay [11] has as its system Streptococcus. Description: Group A Streptococcus viability loss, dose response, counter-screen for streptokinase expression inhibitor project, luminescence, BacTiterGlo (AID 1915).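 Note: potency for reduction of bacterial viability or growth.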 Type of assay: functional, organism-based.
A short description of assay [12]: Luminescence Cell-Based Dose Retest to Confirm Inhibitors of Cancer Stem Cells. [Related pubchem assays (depositor defined):AID2717, AID2721]. Type of assay: functional, Homo sapiens. The conditions noted are these: Homo sapiens.
Assay [13] concerns Vero. Kind of assay: cells. Type of assay: functional. The conditions noted are these: Chlorocebus sabaeus.
Assay [14] deals with T3, Microphthalmia-associated transcription factor (Homo sapiens, UniProt O75030).
T3 sequence (O75030 whole entry): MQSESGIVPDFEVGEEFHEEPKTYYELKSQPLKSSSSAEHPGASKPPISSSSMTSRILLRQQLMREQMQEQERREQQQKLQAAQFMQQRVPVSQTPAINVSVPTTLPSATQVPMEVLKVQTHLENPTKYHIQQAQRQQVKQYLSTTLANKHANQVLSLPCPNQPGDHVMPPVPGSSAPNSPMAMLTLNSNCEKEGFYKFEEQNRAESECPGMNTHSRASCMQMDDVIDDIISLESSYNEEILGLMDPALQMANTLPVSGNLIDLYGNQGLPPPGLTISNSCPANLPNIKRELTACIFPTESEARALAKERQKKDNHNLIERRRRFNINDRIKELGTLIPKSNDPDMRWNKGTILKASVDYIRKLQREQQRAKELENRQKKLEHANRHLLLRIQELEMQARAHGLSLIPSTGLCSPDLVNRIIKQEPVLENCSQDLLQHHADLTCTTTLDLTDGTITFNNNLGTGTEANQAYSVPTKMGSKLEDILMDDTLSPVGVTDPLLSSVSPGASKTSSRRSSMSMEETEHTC
Description: TRPM1 promoter luciferase signal decrease, dose response, MITF inhibitor project, cell-based, SK-MEL-5, cherry-picked, set 3 (AID 493073).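 Note: SK-MEL-5 melanoma cells with luciferase driven by the MITF target TRPM1 promoter.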 Type of assay: functional.

Assay [15] is described as follows: cells. Type of assay: functional.
Assay [16] has as its target Heat shock protein HSP 90-alpha (Homo sapiens, UniProt P07900). Type of assay: functional, organism-based.
Assay [17] has as its target T4, High affinity choline transporter 1 (Homo sapiens, UniProt Q9GZV3).
T4 sequence (Q9GZV3 whole entry): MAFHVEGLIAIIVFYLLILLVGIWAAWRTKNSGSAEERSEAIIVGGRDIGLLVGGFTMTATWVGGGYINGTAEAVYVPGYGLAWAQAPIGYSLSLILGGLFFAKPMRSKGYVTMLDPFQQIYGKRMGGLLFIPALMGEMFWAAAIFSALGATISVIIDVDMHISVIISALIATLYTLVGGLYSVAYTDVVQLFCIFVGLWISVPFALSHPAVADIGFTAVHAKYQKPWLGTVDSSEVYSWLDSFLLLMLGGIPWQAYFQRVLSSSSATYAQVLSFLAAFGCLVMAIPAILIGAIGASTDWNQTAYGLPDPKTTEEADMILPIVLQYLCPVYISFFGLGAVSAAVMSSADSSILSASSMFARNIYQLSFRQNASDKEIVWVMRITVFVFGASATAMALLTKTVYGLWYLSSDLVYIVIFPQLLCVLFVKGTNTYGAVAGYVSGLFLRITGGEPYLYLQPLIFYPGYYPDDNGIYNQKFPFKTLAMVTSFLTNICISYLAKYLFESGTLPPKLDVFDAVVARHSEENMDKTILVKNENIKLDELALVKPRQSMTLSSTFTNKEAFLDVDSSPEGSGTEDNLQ
Description: CHT inhibitors, dose response, cell-based, 5-point CRC, membrane potential dye (AID 504840). Type of assay: functional.

Assay [18] is described as follows: HepG2 cell cytotoxicity, dose response, cytotoxicity control for Shn3 inhibitor project, CellTiter-Glo, cherry-picked (AID 624134). It counts as functional, cell-based. Background: In ATP-based viability assays light output follows the ATP content of the culture.
Assay [19] can be described thus: Shn3 3'UTR reporter inhibitors, dose response, cell-based, Clone20 osteoblasts, firefly luciferase, cherry-picked (AID 624132).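 Note: firefly luciferase luminescence from reporter carrying the Shn3 3'UTR in osteoblasts.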 It counts as functional.
A short description of assay [20]: control 3'UTR Renilla luciferase suppression, dose response, counter-screen for Shn3 inhibitor project, cell-based, Clone20-Shn3RL, cherry-picked (AID 624133). It counts as functional.

`O=C(c1ccc(Cn2c(=O)[nH]c3ccccc3c2=O)cc1)N1CCN(c2ccc(F)cc2)CC1`: the EC50 was > 180 µM (inactive) in assay [1], 14.3 µM (active) in assay [2], 0.912 µM (active) in assay [3] and > 150 µM (inactive) in [4].

With `CCCc1c(CC)c(=N)c2ccccc2n1C`, the IC50 in [5] is 11.3 µM (active). Further, the results for the EC50 in assay [6] and in assay [7] were > 60 µM (not active) and 0.121 µM (active), respectively.

Take `CC(C)C(=O)NC(c1cccs1)c1cc([N+](=O)[O-])c2cccnc2c1O` (stereo not given): the EC50 in assay [1] was > 180 µM (inactive); in assay [2] it was 13.4 µM (active); in assay [8], 2.59 µM (active); in assay [3], 0.242 µM (active); in [4] it was 24.6 µM (active); in assay [10], > 150 µM (not active). Further, the EC50 in [11] was 6.98 µM (active). Also, in assay [9], the AC50 is 3.87 µM (active).

On to `COc1ccc(Br)cc1C(C[N+](=O)[O-])c1c(N)n(C)c(=O)n(C)c1=O` (stereo not given), for which the values for the AC50 in assay [12] and in [14] were 3.46 µM (active) and 8.73 µM (active), respectively. Further, the 50% cytotoxic concentration (CC50) in assay [13] was 10.5 µM (active).

As to `O=C(COC(=O)CCN1C(=O)/C(=C\C=C\c2ccccc2)SC1=S)Nc1cc(F)ccc1F`, the IC50 in [15] was 26.4 µM (active). For the same compound, the AC50 in assay [14] was 7.49 µM (active).

As to `O=C(Nc1ccc(C(F)(F)F)cc1)C1CCN(S(=O)(=O)c2ccc(N3CCCC3=O)cc2)CC1`, the IC50 in [5] is 2.18 µM (active). Besides, the AC50 in [9] was 3.1 µM (active).

As to `O=C(Nc1nnc(CCc2ccccc2)s1)c1ccco1`, the EC50 is > 180 µM (inactive) in [1], > 150 µM (inactive) in assay [2], 1.08 µM (active) in assay [3] and > 150 µM (inactive) in assay [4].

For `O=C(Nc1ccccc1N1CCOCC1)c1ccc([N+](=O)[O-])s1`, the AC50 is 7.97 µM (active) in assay [16] and 12.3 µM (active) in [14].

Regarding `C[C@@H]1COC(=O)[C@H](NC(=O)OCC2c3ccccc3-c3ccccc32)C/C=C\C[C@@H](CC(=O)N[C@@H](CO)Cc2ccccc2)C(=O)N1`, the IC50 in [5] was 12.3 µM (active).

Regarding `O=C(N/N=C/c1cc2ccccc2nc1Cl)[C@H]1C[C@@H]1c1ccccc1`, in [5], the IC50 is 39.9 µM (inactive).

On to `Cn1c(N2CCOCC2)c(/C=N/OC(=O)c2ccc(F)cc2)c2ccccc21`, for which the EC50 in assay [1] is > 180 µM (inactive); in assay [2], > 160 µM (inconclusive); in assay [6], 1.98 µM (active); in assay [7], 0.596 µM (active); in assay [3] it was 0.382 µM (active); in [4], > 160 µM (inactive). In assay [17], the IC50 is 15.9 µM (active).

Take `Sc1nnc(C2CCCCC2)n1/N=C/c1ccc(Br)s1`: the EC50 in [1] was > 180 µM (inactive); in [2] it was > 150 µM (inactive); in assay [3], 1.07 µM (active); in assay [4], 18.9 µM (active).

On to `C[C@@H]1CC[C@@]2(NC1)O[C@H]1C[C@H]3[C@@H]4CC=C5C[C@@H](O)CC[C@]5(C)[C@H]4CC[C@]3(C)[C@H]1[C@@H]2C`, for which the EC50 in [1] was > 180 µM (inactive); in [2], > 160 µM (inconclusive); in [3], 0.272 µM (active); in assay [4], > 160 µM (inactive).

`CCC(=O)NC(c1ccco1)c1cc(Cl)c2cccnc2c1O` (stereo not given): the EC50 in assay [1] is > 180 µM (inactive); in assay [2], 24.9 µM (active); in [6], 7.21 µM (active); in [7], 1.97 µM (active); in assay [3], 0.56 µM (active); in assay [4] it was > 150 µM (inactive). Further, the AC50 was 7.81 µM (active) in assay [18], 1.31 µM (active) in assay [19] and 3.57 µM (active) in [20].

As to `Cc1cc(C)c[n+](C(C)C(=O)c2ccc(-c3ccccc3)cc2)c1` (stereo not given), in assay [5], the IC50 is 8.95 µM (active).
